Assay results reported in patent US9285358B2, “Vitro method for high throughput screening of genotoxic agents in eukaryotic cells” (ANTHEM BIOSCIENCES PVT LTD, priority 2011, dated 2016).
Read-outs that look alike come from different tables or passages of the source.

Columns and labels:
[1] = system: HCT116-p21RLuc-GADD153hFLuc-p53Bgal cells; assay: Anthem's Genotox assay (reporter gene induction p21-RLuc, GADD153-hFLuc, p53-Bgal); conditions: for Anthem's Genotox assay: LEC in μg/ml (genotoxic lowest effective test concentration): at least one reporter induction above 1.5 fold threshold
Protocol: The assay protocol standardized by us is described here. A stock of the test compound is prepared in 2% v/v solvents (including but not limited to DMSO or PBS) and this stock is used to make serial dilutions for the assay. […] The test compound is assayed for cell viability by standard cell viability/cytotoxicity assays (for example MTT assay as shown in the graphs).
The MTT assay is performed using the MTT reagent (Sigma) dissolved in PBS (5 mg/ml). Briefly, the Genotox sensor cells are incubated with ten fold serial dilutions of the test compound in a 96-well microplate. After 24 h of incubation, 10 μl of the MTT solution is added to each well of the 96-well plate and incubated for 1 hour at 37° C. The medium is discarded (in a fume hood) and 100 μl DMSO is added to the wells. The plate is shaken for 10 min and absorbance is measured at 540 nm.
For the genotoxicity assay, 16 h prior to compound treatment, the engineered Anthem's Genotox sensor cells are seeded in 96-well microplates (10,000 cells per well). […] The test compound is added in two-fold serial dilutions and the microplate is incubated at 37 C, 5% CO2 and 95% humidity for 24 or 48 h depending on the experiment requirements.
The cells are lysed after 24 or 48 h with the 60 μl of lysis buffer per well (the lysis buffer composition has been optimized at Anthem Biosciences to be compatible with luciferase and beta galactosidase assays; 50 ml of Lysis buffer contains 7.5 ml of 1M HEPES at pH 8.0, 125 μl of Triton X 100, 50 mg of Porcine gelatin, 5 ml of glycerol and 25 μl of Antifoam). For each of the luciferase assays (Renilla and Firefly luciferase) 10 μl of the lysate is used, while 30 μl of the lysate is used for the beta galactosidase assay and total protein is estimated using the remaining 10 μl of the lysate by Bradford reagent.
The Renilla luciferase assay is performed using luciferase assay buffer (0.5 M NaCl, 0.1 M Potassium phosphate buffer pH 7.2, 1 mM Di-Sodium EDTA, 1 mg/mL porcine gelatin, 50 mM Potassium iodide) containing 1 μg/well coelentrazine (1 mg/ml stock prepared in 100% methanol). The firefly luciferase assay is performed with the same luciferase assay buffer containing 100 μM D luciferin, 150 μM ATP and 80 μM Coenzyme A. The assay plate is gently shaken for 10 minutes on a microplate shaker (to fully mix the contents of each well). Then the plate is taken to the microplate reader and the luminescence data are collected from the microplates. […] The Luminiscence data are collected with an integration time of 10 seconds and a delay of 2 seconds.
The beta galactosidase assay is carried out with Z assay buffer (50 ml buffer contains 0.4265 g of Na2HPO4, 0.275 g of NaH2PO4, 500 μl of 1M KCl, 50 μl of 1M MgSO4; for every 10 ml, 27 μl of Beta mercaptoethanol is added) and the substrate […] ONPG (1 ml of 10× ONPG stock-20 mg/ml). Once the yellow colour develops, 50 μl 1M Na2CO3 is added per well and the reading is taken at A420.
The luminescence and absorbance data are transported into Microsoft excel spreadsheet and the fold change in the reporter gene expressions is calculated by normalizing with the data from vehicle treated control wells. The graph is plotted with test compound concentrations on X axis, cell viability percentage (from MTT assay) on primary Y axis and reporter gene fold induction on the secondary Y axis. […] The genotoxicity threshold is not calculated for test concentrations that result in less than 50% cell viability. […]

[2] = system: HCT116-p21RLuc-GADD153hFLuc-p53Bgal cells; conditions: 24 h, MA: metabolic activation using S9 fraction mix
Protocol: The luminescence and absorbance data are transported into Microsoft excel spreadsheet and the fold change in the reporter gene expressions is calculated by normalizing with the data from vehicle treated control wells. The graph is plotted with test compound concentrations on X axis, cell viability percentage (from MTT assay) on primary Y axis and reporter gene fold induction on the secondary Y axis. […] The genotoxic threshold is set at 1.5 fold change (i.e. 50% more than vehicle treated control). The genotoxic LEC is the lowest effective test concentration that produced at least one of the reporter gene inductions of more than 1.5 threshold. The genotoxicity threshold is not calculated for test concentrations that result in less than 50% cell viability. […]
The genotoxic potential of metabolites of test compounds is assessed by incubating the compound in the Anthem's Genotox sensor cells for 3 hours with S9 of Aroclor 1254-treated rats (1% mix), procured from Moltox, Cat #11-101.5. […]
10^3 cells were seeded per well in 100 μl of McCoy's media with 10% FBS was incubated overnight (37° C., 5% CO2, 100% humidity) in a 96-well plates (as two sets). […] The plate was gently shaken for 10 minutes on a microplate shaker and then taken to the microplate reader to obtain the luminescence reading. […]

[3] = assay time 24 h, no metabolic activation

Nc1ccn([C@@H]2O[C@H](CO)[C@@H](O)[C@@H]2O)c(=O)n1 [AraC arabinoside]
Anthem's Genotox assay: promoter(s) that was(were) induced [1]: p21

O=P1(N(CCCl)CCCl)NCCCO1 (stereo not shown) [Cyclophosphamide]
Anthem's Genotox assay: LEC in μg/ml (genotoxic lowest effective test concentration) [2]: > 55.82 µg/mL
Anthem's Genotox assay: Result (assay time in h) [2]: + (positive for genotoxicity)

COc1cc([C@@H]2c3cc4c(cc3[C@@H](O[C@@H]3O[C@@H]5CO[C@@H](C)O[C@H]5[C@H](O)[C@H]3O)[C@H]3COC(=O)[C@H]23)OCO4)cc(OC)c1O [Etoposide]
Anthem's Genotox assay: LEC in μg/ml (genotoxic lowest effective test concentration) [1, 3]: 6.25 µg/mL

CC1COc2c(N3CCN(C)CC3)c(F)cc3c(=O)c(C(=O)O)cn1c23 (stereo not shown) [Ofloxacin]
Anthem's Genotox assay: LEC in μg/ml (genotoxic lowest effective test concentration) [1, 3]: 750.0 µg/mL
Anthem's Genotox assay: Result (assay time in h) ([1]; assay time 24 h, no metabolic activation, positive when reporter gene induction over 1.5 fold): + (positive for genotoxicity)

O=c1c(O)c(-c2ccc(O)c(O)c2)oc2cc(O)cc(O)c12 [Querceti3n]
Anthem's Genotox assay: promoter(s) that was(were) induced [1]: GADD153
